Test results reported in patent US10905783B2, “Glucosamine and derivatives thereof in imaging” (priority 2015, dated 2021).

What was measured:
[1] = cited from earlier work
4T1 tumor = experiment: In vivo CEST MRI of 4T1 breast tumors in mice; set-up: species or system mouse
Description: 4T1 mouse mammary tumor cell lines were obtained from ATCC. Cells were cultured in high glucose DMEM supplemented 5% FBS, 5% NCS, NEAA and antibiotics (100 units/ml penicillin and 100 μg/ml streptomycin) at 37° C. in a humidified atmosphere containing 5% CO2.
BALB/C female mice were purchased and kept in the breeding facility of Life Science School, Tel Aviv University. To induce orthotropic xenograph tumors in the mice. 4T1 cells were injected into the lower left mammary gland of 8-week-old (17-22 gram) animals (10^6 cells in 100 μL saline). The tumors were allowed to grow for 10-14 days, reaching an average tumor volume of 5 mm^3. All experiments with animal models were carried out in compliance with the principles of the National Research Council (NRC) and were approved by the institutional animal care and use committee (IACUC) (#M-15-057).
A Bruker 7 Tesla (T) Biospec scanner with 30 cm bore size was used to scan implanted xenograph mammary tumors of mice before and after administration (i.v., i.p. or p.o.) of glucosamine or its derivatives (the glucose analogues were dissolved in saline, pH 7.4). 4T1 or MCF7 tumor-bearing mice, with an average tumor volume of 2-7 mm^3, were fasted overnight with water access, anesthetized with isoflurane (1-2%) and scanned (without surface coil). Their temperature was maintained at 37° C.
At first, T2 RARE anatomical images (RARE factor-8, TR-3000 ms, TE-11.7 ms) were acquired to identify the slice selection with maximum tumor size. The CEST images were generated as follows: a series of T2 RARE images (RARE factor-1, TR-3000 ms, TE-11.7 ms) were collected from a single 1 mm coronal slice of the abdominal area (acquisition matrix before zero filling 128×64, field of view of 40×40 mm^2) after a 2 s presaturation pulse of B1=2.5 μT (106 Hz) at the hydroxyl proton frequency offset of ±1.2 ppm from the water signal. The CEST images were acquired before and after glucosamine or its derivatives administration in order to identify the baseline. The acquisition continued for more than an hour after treatment.
The mean intensities in the selected region of interest (ROI) of the tumor were used for the % CEST plot.

[2] = test system: TSA and B16 cancer models; conditions: cited from earlier work

O=CC[C@@H](O)[C@H](O)[C@H](O)CO [2-DG, 2-deoxy-D-glucose]
toxic dose ([1]; rats): 3000 mg/kg

O=C[C@H](O)[C@@H](O)[C@H](O)[C@H](O)CO [D-glucose]
time after administration at which the CEST signal decreased dramatically (4T1 tumor; D-glucose 1000 mg/kg per os, same animal as glucosamine): 30 to 40 min | duration of the CEST signal (4T1 tumor; PO, 4T1 model): less than an hour | CEST signal (4T1 tumor; oral doses of less than 1 g/kg): no significant CEST signal | CEST signal 60 minutes after administering (4T1 tumor; same animal, glucosamine at half the dosage of D-glucose): no CEST signal was observed

O=C[C@H](F)[C@@H](O)[C@H](O)[C@H](O)CO [FDG, 2-fluoro-deoxy-D-glucose]
toxicity ([1]; high concentrations): toxic at high concentrations

CC(=O)N[C@H]1C(O)O[C@H](CO)[C@@H](O)[C@@H]1O (stereo partly drawn) [N-Acetyl-D-glucosamine]
CEST contrast [2]: increase CEST contrast
